Molecules are shown by their SMILES.

For orientation: EC50 means the midpoint of the concentration-response curve.

In the assay the target is T1, mGluR2 receptor (metabotropic glutamate receptor 2) (Homo sapiens, UniProt Q14416).
T1 construct: expressed in transfected cells
T1 sequence (Q14416 19-872, species assumed): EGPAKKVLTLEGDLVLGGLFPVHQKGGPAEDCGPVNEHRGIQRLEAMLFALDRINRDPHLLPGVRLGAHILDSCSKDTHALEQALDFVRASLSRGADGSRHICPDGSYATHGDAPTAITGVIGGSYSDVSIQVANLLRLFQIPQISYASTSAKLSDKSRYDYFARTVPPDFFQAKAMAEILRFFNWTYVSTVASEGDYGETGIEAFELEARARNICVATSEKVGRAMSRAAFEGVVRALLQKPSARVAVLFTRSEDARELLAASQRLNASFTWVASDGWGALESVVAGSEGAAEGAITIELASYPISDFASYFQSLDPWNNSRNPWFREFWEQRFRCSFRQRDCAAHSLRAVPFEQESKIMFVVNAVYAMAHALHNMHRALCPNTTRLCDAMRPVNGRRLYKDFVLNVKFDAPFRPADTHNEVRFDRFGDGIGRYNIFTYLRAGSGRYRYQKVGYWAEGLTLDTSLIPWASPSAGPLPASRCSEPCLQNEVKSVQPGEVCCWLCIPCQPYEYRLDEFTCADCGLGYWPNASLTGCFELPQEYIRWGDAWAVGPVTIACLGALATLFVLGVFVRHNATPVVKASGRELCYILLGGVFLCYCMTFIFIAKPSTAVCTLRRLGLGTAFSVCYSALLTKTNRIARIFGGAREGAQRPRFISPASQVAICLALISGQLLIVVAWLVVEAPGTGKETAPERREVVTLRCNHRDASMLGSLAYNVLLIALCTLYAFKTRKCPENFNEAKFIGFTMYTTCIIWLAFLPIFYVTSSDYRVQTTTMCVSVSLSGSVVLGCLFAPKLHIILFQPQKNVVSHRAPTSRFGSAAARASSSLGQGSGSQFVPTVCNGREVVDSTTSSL
Nature of the assay: mGluR2 potentiator screen (FLIPR, EC10-EC20 glutamate challenge).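 Further: HEK cells stably expressing human mGluR2 with GL15 G protein, Fluo-4 calcium fluorescence read on FLIPR, compounds added before an EC10-EC20 glutamate challenge to detect potentiation.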 It counts as cell-based. To be noted: geometric mean; read-out: mGluR 2 EC50 (geometric mean).
Consider `C[C@@H]1CN(Cc2ccc3c(c2)CCC(C)(C)O3)C(=O)O1` [Example 87, (5R)-3-[(2,2-Dimethyl-3,4-dihydro-2H-chromen-6-yl)methyl]-5-methyl-1,3-oxazolidin-2-one], for which the EC50 amounted to 1.38 µM.

`Cc1cc(CN2C[C@@H](C)OC2=O)ccc1-c1ccc(F)cc1F` [Example 299, (5R)-3-[(2′,4′-Difluoro-2-methylbiphenyl-4-yl)methyl]-5-methyl-1,3-oxazolidin-2-one]: the concentration giving a half-maximal response (EC50) turned out to be 0.167 µM.

As for `C[C@@H]1CN(Cc2ccc(-c3ccc(N4CCCC4)nc3)cc2)C(=O)O1` [Example 158], the EC50 was 0.151 µM.

With `CC1(C)COC(=O)N(Cc2ccc(OC3CCCCC3)cc2)C1` [Example 43], the EC50 was 0.336 µM.

Turning to `CC(Oc1ccc(CN2CCN(C3CC[C@@H](C)C3)CC2=O)cc1)C1CCCCC1` (stereo partly drawn) [Example 224], the EC50 turned out to be 1.1 µM.

As for `CC(C)CN1CCN(Cc2ccc(OC(C)C3CCCCC3)cc2)C(=O)C1` (stereo not drawn) [Example 200], the EC50 came out at 0.191 µM.

For the compound `C[C@@H]1CN(Cc2ccc(Oc3ccc(F)cc3)cc2)C(=O)O1` [Example 179], the EC50 was found to be 0.137 µM.

As for `CC[C@H](C)COc1ccc(CN2CC(C)OC2=O)cc1` (stereo partly drawn) [Example 100], the EC50 was found to be 0.0559 µM.

Consider `CC1CN(Cc2ccc(OC[C@@H](C)c3ccccc3)cc2)C(=O)O1` (stereo partly drawn) [Example 111], for which the half-maximal effective concentration (EC50) was determined as 0.0483 µM.

On to `CCCN1CCN(Cc2ccc(OC(C)C3CCCCC3)cc2)C(=O)C1` (stereo not drawn) [Example 215], for which the EC50 was found to be 0.435 µM.

Take `Cc1cc(CN2C[C@@H](C)OC2=O)ccc1OCc1ccc(C(F)(F)F)cc1` [Example 284, (5R)-5-Methyl-3-(3-methyl-4-{[4-(trifluoromethyl)benzyl]oxy}benzyl)-1,3-oxazolidin-2-one]: the EC50 amounted to 0.309 µM.

Take `C[C@@H]1CN(Cc2ccc(-c3ccc(Cl)c(F)c3)cc2)C(=O)O1` [Example 237]: the EC50 is 0.112 µM.

With `CC1CN(Cc2ccc(OCCc3cccc(Cl)c3)cc2)C(=O)O1` (stereo not drawn) [Example 99], the EC50 was determined as 0.115 µM.

Regarding `Cc1cc(CN2C[C@@H](C)OC2=O)ccc1Oc1ncc(Cl)cc1Cl` [Example 296, (5R)-3-{4-[(3,5-Dichloropyridin-2-yl)oxy]-3-methylbenzyl}-5-methyl-1,3-oxazolidin-2-one], the concentration for a half-maximal effect (EC50) was 0.0455 µM.

With `CC1CN(Cc2ccc(OCc3ccc(Cl)cc3)cc2)C(=O)O1` (stereo not drawn) [Example 89], the EC50 was found to be 0.0692 µM.

For `Cc1cc(C)n(-c2cccc(-c3ccc(CN4C[C@@H](C)OC4=O)cc3)c2)n1` [Example 199], the 50% effective concentration (EC50) came out at 0.804 µM.

Consider `C[C@H]1CN(Cc2ccc(-c3ccc(C(F)(F)F)cc3)cc2)C(=O)O1` [Example 63, (5S)-5-methyl-3-{[4′-(trifluoromethyl)biphenyl-4-yl]methyl}-1,3-oxazolidin-2-one], for which the EC50 was 0.141 µM.

On to `CC(=O)c1ccccc1-c1ccc(CN2C[C@@H](C)OC2=O)cc1` [Example 175], for which the concentration giving a half-maximal response (EC50) came to 0.805 µM.

For the compound `CC(C)Oc1ccc(-c2ccc(CN3C[C@@H](C)OC3=O)cc2)cc1` [Example 57, (5R)-3-[(4′-isopropoxybiphenyl-4-yl)methyl]-5-methyl-1,3-oxazolidin-2-one], the half-maximal effective concentration (EC50) was < 0.0408 µM.

`CC(Oc1ccc(CN2CC(c3ccccc3)OC2=O)cc1)c1ccccc1` (stereo not drawn) [Example 39]: the EC50 turned out to be 0.244 µM.

Consider `CC1CCCC1N1CCN(Cc2ccc(OC(C)C3CCCCC3)cc2)C(=O)C1` (stereo not drawn) [Example 225], for which the concentration giving a half-maximal response (EC50) was found to be 0.638 µM.

With `CC(Oc1ccc(CN2CCN(C(C)C)CC2=O)cc1)C1CCCCC1` (stereo not drawn) [Example 201], the concentration giving a half-maximal response (EC50) came out at 0.763 µM.

In the case of `CC(Oc1ccc(CN2CC(c3ccccc3)OC2=O)cc1)C1CCCCC1` (stereo not drawn) [Example 38], the concentration giving a half-maximal response (EC50) stood at 0.127 µM.

`CC1CN(Cc2ccc(OCCc3ccc(C#N)cc3)cc2)C(=O)O1` (stereo not drawn) [Example 109]: the EC50 is 0.219 µM.

As to `C[C@H]1[C@@H](c2ccccc2)OC(=O)N1Cc1ccc(OC2CCCCC2)cc1` [Example 56], the concentration for a half-maximal effect (EC50) is 0.356 µM.

Turning to `O=C1OC(c2cccnc2)CN1Cc1ccc(-c2ccc(OC(F)(F)F)cc2F)cc1` (stereo not drawn) [Example 303, 3-{[2′-Fluoro-4′-(trifluoromethoxy)biphenyl-4-yl]methyl}-5-pyridin-3-yl-1,3-oxazolidin-2-one], the EC50 turned out to be 0.0777 µM.

As for `O=C1OCCCN1Cc1ccc(OCC2CCC2)cc1` [Example 28], the EC50 was found to be 1.24 µM.

As to `CC(C)Oc1ccc(-c2ccc(CN3C[C@H](C)OC3=O)cc2)cc1` [Example 58, (5S)-3-[(4′-isopropoxybiphenyl-4-yl)methyl]-5-methyl-1,3-oxazolidin-2-one], the EC50 was found to be 0.105 µM.

Consider `C[C@@H]1CN(Cc2ccc(-c3ccc4c(c3)CCO4)nc2)C(=O)O1` [Example 264], for which the concentration giving a half-maximal response (EC50) came to 0.561 µM.

Turning to `CCCOc1ccc(CN2CC(c3ccccc3)OC2=O)cc1` (stereo not drawn) [Example 3], the EC50 was 0.361 µM.

`O=C1OC[C@@H]2CCCC[C@@H]2N1Cc1ccc(OCC2CCC2)cc1` [Example 1]: the EC50 was found to be 0.761 µM.

In the case of `C[C@@H]1CN(Cc2ccc(-c3ccc(Cl)cc3Cl)cc2)C(=O)O1` [Example 273], the EC50 is < 0.0401 µM.

On to `C[C@@H]1CN(Cc2ccc(-c3ccc4c(c3)OCCO4)cc2)C(=O)O1` [Example 198], for which the EC50 is 0.0422 µM.

In the case of `C[C@@H]1CN(Cc2ccc(NCC3CCCCC3)nc2)C(=O)O1` [Example 283, (5R)-3-({6-[(Cyclohexylmethyl)amino]pyridin-3-yl}methyl)-5-methyl-1,3-oxazolidin-2-one], the EC50 worked out at 1.29 µM.

Take `C[C@@H]1CN(Cc2ccc(-c3ccc(C(F)(F)F)cc3C(F)(F)F)nc2)C(=O)O1` [Example 276]: the EC50 amounted to 0.788 µM.

Consider `CC(Oc1ccc(CN2C[C@@H](C)OC2=O)cc1F)C1CCCCC1` (stereo partly drawn) [Example 230, (5R)-3-[4-(1-Cyclohexylethoxy)-3-fluorobenzyl]-5-methyl-1,3-oxazolidin-2-one], for which the EC50 was < 0.0216 µM.

On to `O=C1OC[C@@H]2CCCC[C@@H]2N1Cc1ccc(OC2CCCCC2)cc1` [Example 41], for which the 50% effective concentration (EC50) was found to be 0.386 µM.

`O=C1OC(c2cccnc2)CN1Cc1ccc(-c2ccc(F)cc2F)cc1` (stereo not drawn) [Example 302, 3-[(2′,4′-Difluorobiphenyl-4-yl)methyl]-5-pyridin-3-yl-1,3-oxazolidin-2-one]: the 50% effective concentration (EC50) was 0.0789 µM.

As for `C[C@@H]1CN(Cc2ccc(-c3ccc(OC(F)F)cc3Cl)nc2)C(=O)O1` [Example 312], the half-maximal effective concentration (EC50) stood at 0.578 µM.

Turning to `C[C@@H]1CN(Cc2ccc(O[C@@H](C)c3ccccc3)cc2)C(=O)O1` [Example 69], the EC50 worked out at 0.173 µM.

Take `C[C@@H]1CN(Cc2ccc(-c3ccc(F)cc3F)c(F)c2)C(=O)O1` [Example 288]: the 50% effective concentration (EC50) was 0.0369 µM.

For `CC[C@H](Oc1ccc(CN2CC(C)OC2=O)cc1)c1ccccc1` (stereo partly drawn) [Example 148], the concentration for a half-maximal effect (EC50) is < 0.0134 µM.

Take `COc1cc(F)ccc1-c1ccc(CN2C[C@@H](C)OC2=O)cc1` [Example 239]: the half-maximal effective concentration (EC50) is < 0.105 µM.

As for `Cc1ccc(C(C)Oc2ccc(CN3CC(C)OC3=O)cc2)cc1` (stereo not drawn) [Example 125], the EC50 was determined as 0.0241 µM.

In the case of `C[C@@H]1CN(Cc2ccc(-c3c(F)cccc3F)cc2)C(=O)O1` [Example 247], the half-maximal effective concentration (EC50) is 0.211 µM.

For `CC(C)Oc1ccc(-c2ccc(CN3C[C@@H](C)OC3=O)cc2)c(Cl)c1` [Example 280], the EC50 is < 0.0154 µM.

Consider `CCC(COc1ccc(CN2CC(C)OC2=O)cc1)(c1ccccc1)N(C)C` (stereo not drawn) [Example 141], for which the EC50 worked out at 0.995 µM.

For the compound `CC1CN(Cc2ccc(OCc3nc4ccccc4n3C(C)C)cc2)C(=O)O1` (stereo not drawn) [Example 97], the EC50 was 0.823 µM.
